# pEC50, pIC50: −log10 of the molar value.
# Experiments:
# [1] = tested on: SMN2 Protein; experiment: SMN Protein Assay (MSD); format: cell-based, human; settings: SMA patient fibroblasts, 48 hours, 0.6 nM to 2.5 µM
# Method: Spinal muscular atrophy (SMA) patient fibroblasts were plated in 96-well plates at 7,000 cells/well. Compounds were added in concentrations ranging from 0.6 nM to 2.5 µM, incubated for 48 hours and the cells were lysed with 100 µL of lysis buffer. 20 µL of lysate was used for SMN protein measurement by Mesoscale Discovery (MSD) assay developed by PharmOptima (Michigan). A standard curve prepared with SMN protein ranging from 1 µg/ml to 19.5pg/ml was used in each MSD plate to calculate the absolute SMN protein amount in each sample.
# [2] = tested on: SMN2 Splicing D7 (SMN Δ7 transcript); experiment: SMN Quantitative Splicing Assay (qPCR); format: cell-based, human; settings: 24 h, SMA patient fibroblasts (GM03813), 2.5 µM to 0.6 nM
# Method: Spinal muscular atrophy (SMA) patient fibroblasts (GM03813, Coriell) were plated in 96-well plates at 50,000 cells/well. […] Treated cells were lysed and cDNA synthesized using the Fast Advanced Cells-to-Ct kit (Thermofisher A35378) according to the manufacturer’s instructions. 2 µL of each cDNA were used in qPCR reactions. […] Reactions were run in a Quant Studio 6 qPCR instrument with default settings.
SMILES,pEC50 [1],"pIC50 ([2]; Homo sapiens, Fibroblast)",pIC50 [2]
CN(c1cnc(-c2cc3ncn(C)c(=O)c3cc2O)nn1)C1CC2COCC(C1)N2 (stereo not drawn) [Compound 148],7.82 to 11.00,7.82 to 11.00,
CN(c1cnc(-c2cc3cnn(C)c(=O)c3cc2O)nn1)C1CC2COCC(C1)N2 (stereo not drawn) [Compound 149],7.00 to 7.29,7.82 to 11.00,
Cc1cnc2cc(O)c(-c3ncc(N(C)[C@@H]4CC5CCC(N5)[C@@H]4F)nn3)cc2n1 (stereo partly drawn) [Compound 51],7.00 to 7.29,7.00 to 7.29,
CN(c1cnc(-c2cc3cncnc3cc2O)nn1)C1CC2CCC(N2)[C@H]1F (stereo partly drawn) [Compound 26],7.30 to 7.80,7.00 to 7.29,
Cc1cc2cc(-c3ncc(N(C)[C@@H]4CC5CCC(N5)[C@@H]4F)nn3)c(O)cc2cn1 (stereo partly drawn) [Compound 43],7.30 to 7.80,7.00 to 7.29,
CN(c1cnc(-c2cc3ccn(C(F)F)c(=O)c3cc2O)nn1)[C@@H]1CC2CCC(N2)[C@@H]1F (stereo partly drawn) [Compound 156],7.82 to 11.00,7.30 to 7.80,
[2H]C([2H])([2H])n1ccc2cc(-c3ncc(N(C)[C@H]4CC5CCC(N5)[C@H]4F)nn3)c(O)cc2c1=O (stereo partly drawn) [Compound 157],7.30 to 7.80,7.30 to 7.80,
Cc1cc(=O)c2cc(-c3ncc(N(C)[C@H]4C[C@@H]5CCC[C@@H](N5)[C@H]4F)nn3)c(O)cc2o1 [Compound 112],7.30 to 7.80,7.30 to 7.80,
CCn1ccc2cc(-c3ncc(N(C)C4CC5CCCC(N5)C4F)nn3)c(O)cc2c1=O (stereo not drawn) [Compound 122],5.00 to 6.30,7.00 to 7.29,
CCn1ccc2cc(-c3ncc(N(C)[C@H]4C[C@@H]5CCCC(N5)[C@H]4F)nn3)c(O)cc2c1=O [Compound 121],7.82 to 11.00,7.82 to 11.00,
CCn1cc(F)c2cc(-c3ncc(N(C)[C@@H]4CC5CC(F)(F)C(C4)N5)nn3)c(O)cc2c1=O (stereo partly drawn) [Compound 211],5.00 to 6.30,6.30 to 7.00,
CCN1C=C(F)c2cc(-c3ncc(N(C)[C@@H]4CC5CCC(N5)[C@@H]4F)nn3)c(O)cc2O1 (stereo partly drawn) [Compound 162],7.82 to 11.00,7.00 to 7.29,
[2H]C([2H])([2H])N(c1cnc(-c2cc3ncn(C([2H])([2H])[2H])c(=O)c3cc2O)nn1)[C@H]1C[C@@H]2CCC(N2)[C@H]1F [Compound 175],7.82 to 11.00,7.82 to 11.00,
Cc1cc2cc(O)c(-c3ncc(N(C)[C@@H]4CC5CCC[C@H](N5)[C@@H]4F)nn3)cc2cn1 [Compound 77],7.30 to 7.80,7.30 to 7.80,
CCc1cc(=O)c2cc(-c3ncc(N(C)[C@H]4C[C@@H]5CCC(N5)[C@H]4F)nn3)c(O)cc2o1 [Compound 118],7.82 to 11.00,7.82 to 11.00,
CN(c1cnc(-c2cc3ncn(C)c(=O)c3cc2O)nn1)C1CC2CC(F)(F)C(C1)N2 (stereo not drawn) [Compound 144],7.82 to 11.00,,7.82 to 11.00
CCn1ncc2cc(-c3ncc(N(C)[C@@H]4CC5CC[C@H](N5)[C@@H]4F)nn3)c(O)cc2c1=O [Compound 164],7.30 to 7.80,7.00 to 7.29,
CN(c1cnc(-c2cc3cnn(C)c(=O)c3cc2O)nn1)[C@H]1C[C@]2(C)COC[C@](C)(C1)N2 [Compound 151],7.82 to 11.00,7.82 to 11.00,
[2H]C([2H])([2H])n1ncc2cc(-c3ncc(N(C)[C@@H]4CC5CC[C@H](N5)[C@@H]4F)nn3)c(O)cc2c1=O [Compound 182],7.82 to 11.00,7.82 to 11.00,
CN(c1cnc(-c2cc3ccn(C)c(=O)c3cc2O)nn1)[C@@H]1CC2CC[C@](C)(N2)[C@@H]1F [Compound 172],7.82 to 11.00,7.82 to 11.00,
Cc1ncc2cc(-c3ncc(N(C)[C@H]4C[C@@H]5CCC(N5)[C@H]4F)nn3)c(O)cc2n1 [Compound 72],7.00 to 7.29,7.00 to 7.29,

SMILES,pEC50 [1],"pIC50 ([2]; Homo sapiens, Fibroblast)",pIC50 [2]
CN(c1cnc(-c2cc3nccnc3cc2O)nn1)[C@@H]1CC2CC[C@H](N2)[C@@H]1F [Compound 19],6.30 to 7.00,6.30 to 7.00,
CCn1cnc2cc(-c3ncc(N(C)C4CC5CCC(N5)[C@H]4F)nn3)c(O)cc2c1=O (stereo partly drawn) [Compound 32],7.82 to 11.00,7.82 to 11.00,
"CCn1cc(F)c2cc(-c3ncc(N(C)[C@H]4C[C@@H]5CCC(N5)[C@H]4F)nn3)c(O)cc2c1=O [Compound 163, 2-Ethyl-4-fluoro-6-(6-{[(2R,3S,5S)-2-fluoro-8-azabicyclo[3.2.1]octan-3-yl](methyl)amino}-1,2,4-triazin-3-yl)-7-hydroayisoquinolin-1-one]",7.82 to 11.00,7.82 to 11.00,
CN(c1cnc(-c2cc3ccncc3cc2O)nn1)C1CC2CCC(N2)[C@H]1F (stereo partly drawn) [Compound 22],7.82 to 11.00,7.30 to 7.80,
CN(c1cnc(-c2cc3c(F)cn(C)c(=O)c3cc2O)nn1)[C@@H]1CC2CC[C@H](N2)[C@@H]1F [Compound 65],7.82 to 11.00,7.30 to 7.80,
[2H]C([2H])([2H])N(c1cnc(-c2cc3ncn(C([2H])([2H])[2H])c(=O)c3cc2O)nn1)[C@@H]1CC2CC[C@H](N2)[C@@H]1F [Compound 176],7.82 to 11.00,7.30 to 7.80,
CN(c1cnc(-c2cc3ccn(C)c(=O)c3cc2O)nn1)[C@H]1CC2CC[C@@H](N2)[C@H]1F [Compound 7A],7.82 to 11.00,7.82 to 11.00,
[2H]C([2H])([2H])n1cnc2cc(-c3ncc(N(C)[C@H]4C[C@@H]5CCC(N5)[C@H]4F)nn3)c(O)cc2c1=O [Compound 177],7.82 to 11.00,7.82 to 11.00,
CN(c1cnc(-c2cc3occc(=O)c3cc2O)nn1)[C@@H]1CC2CCC[C@H](N2)[C@@H]1F [Compound 60],7.82 to 11.00,7.30 to 7.80,
CN(c1cnc(-c2cc3occc(=O)c3cc2O)nn1)C1CC2CCC(N2)C1F (stereo not drawn) [Compound 17],7.30 to 7.80,7.30 to 7.80,
Cc1cc2cc(-c3ncc(N(C)[C@H]4CC5CCC(N5)[C@H]4F)nn3)c(O)cc2cn1 (stereo partly drawn) [Compound 44],7.82 to 11.00,7.82 to 11.00,
"Cc1ncc2cc(O)c(-c3ncc(N(C)[C@@H]4CC5CCC(N5)[C@@H]4F)nn3)cc2n1 (single isomer, unassigned) [Compound 39]",7.00 to 7.29,6.30 to 7.00,
CN(c1cnc(-c2cc3c(=O)ccoc3cc2O)nn1)[C@@H]1CC2CC[C@H](N2)[C@@H]1F [Compound 75],7.30 to 7.80,6.30 to 7.00,
CN(c1cnc(-c2cc3cccnc3cc2O)nn1)C1CC2CCC(N2)[C@H]1F (stereo partly drawn) [Compound 24],7.30 to 7.80,7.30 to 7.80,
Cc1nc2cc(O)c(-c3ncc(N(C)[C@H]4C[C@@H]5CCC(N5)[C@H]4F)nn3)cc2nc1C [Compound 56],7.30 to 7.80,7.82 to 11.00,
[2H]C([2H])([2H])n1cc(F)c2cc(-c3ncc(N(C)[C@@H]4CC5CC[C@H](N5)[C@@H]4F)nn3)c(O)cc2c1=O [Compound 192],7.82 to 11.00,7.82 to 11.00,
Cc1nc2cc(-c3ncc(N(C)[C@@H]4CC5CCC(N5)[C@@H]4F)nn3)c(O)cc2c(=O)n1C (stereo partly drawn) [Compound 213],7.82 to 11.00,7.30 to 7.80,
CN(c1cnc(-c2cc3c(=O)n(C)ccc3cc2O)nn1)[C@@H]1CC2CC[C@H](N2)[C@@H]1F [Compound 81],7.30 to 7.80,7.00 to 7.29,
Cc1cnc2cc(O)c(-c3ncc(N(C)[C@H]4C[C@@H]5CCC(N5)[C@H]4F)nn3)cc2n1 [Compound 52],7.82 to 11.00,7.30 to 7.80,
[2H]C([2H])([2H])N(c1cnc(-c2cc3c(F)cn(CC)c(=O)c3cc2O)nn1)[C@@H]1C[C@H]2CC[C@H](N2)[C@@H]1F [Compound 202],7.82 to 11.00,7.00 to 7.29,
Cc1cnc2cc(-c3ncc(N(C)[C@@H]4CC5CCCC(N5)[C@@H]4F)nn3)c(O)cc2n1 (stereo partly drawn) [Compound 105],7.30 to 7.80,6.30 to 7.00,
